Source: ChEMBL document CHEMBL4715908, “Design, synthesis, characterization, and anticancer activity of a novel series of O-substituted chalcone derivatives” (Bioorg Med Chem Lett, 2021)

Assays:
HCT-116 [1] = assay: Cytotoxicity against human HCT-116 p53+/+ cells assessed as reduction in cell viability after 72 hrs by RRA assay; assay type: functional, cell-based; conditions: HCT-116, 72 h
[2] = Cytotoxicity against human U87.deltaEGFR cells assessed as reduction in cell viability after 72 hrs by RRA assay; assay type: functional, cell-based; conditions: U87MG.deltaEGFR
[3] = Cytotoxicity against mouse AML12 cells assessed as reduction in cell viability after 72 hrs by RRA assay; assay type: cell-based; conditions: AML12, 72 h
MDA-MB-231 = assay: Cytotoxicity against human MDA-MB-231 pcDNA cells assessed as reduction in cell viability after 72 hrs by RRA assay; assay type: functional, cell-based; conditions: MDA-MB-231, 72 h
HCT-116 [4] = assay: Cytotoxicity against human HCT-116 p53-/- cells assessed as reduction in cell viability after 72 hrs by RRA assay; assay type: functional, cell-based; conditions: HCT-116, 72 h
HepG2 [5] = assay: Cytotoxicity against human HepG2 cells assessed as reduction in cell viability after 72 hrs by RRA assay; assay type: functional, cell-based; conditions: HepG2, 72 h
CCRF-CEM = assay: Cytotoxicity against human CCRF-CEM cells assessed as reduction in cell viability after 72 hrs by RRA assay; assay type: functional, cell-based
[6] = Resistant index, ratio of IC50 for cytotoxicity against human MDA-MB-231/BCRP cells to IC50 for cytotoxicity against human MDA-MB-231 pcDNA cells; assay type: functional
ADR5000 cell line = assay: Cytotoxicity against human CEM/ADR5000 cells assessed as reduction in cell viability after 72 hrs by RRA assay; assay type: functional, cell-based; conditions: ADR5000, 72 h
[7] = Resistant index, ratio of IC50 for cytotoxicity against human U87MG.deltaEGFR cells to IC50 for cytotoxicity against human U87 cells; assay type: functional
[8] = Resistant index, ratio of IC50 for cytotoxicity against human CEM/ADR5000 cells to IC50 for cytotoxicity against human CCRF-CEM cells; assay type: functional
[9] = Cytotoxicity against human MDA-MB-231/BCRP cells assessed as reduction in cell viability after 72 hrs by RRA assay; assay type: functional, cell-based
[10] = Resistant index, ratio of IC50 for cytotoxicity against human HCT-116 p53-/- cells to IC50 for cytotoxicity against human HCT-116 p53+/+ cells
[11] = Selectivity index, ratio of IC50 for cytotoxicity against mouse AML12 cells to IC50 for cytotoxicity against human HepG2 cells
U-87 MG = assay: Cytotoxicity against human U87 cells assessed as reduction in cell viability after 72 hrs by RRA assay; assay type: functional, cell-based, U-87MG ATCC
[12] = Resistant index, ratio of IC50 for cytotoxicity against human HCT-116 p53+/+ cells to IC50 for cytotoxicity against human HCT-116 p53-/- cells; assay type: functional
HL-60 = assay: Cytotoxicity against human HL-60 cells assessed as reduction in cell viability after 72 hrs by SRB assay; assay type: functional, cell-based; conditions: HL-60, 72 h
THP-1 = assay: Cytotoxicity against human THP-1 cells assessed as reduction in cell viability after 72 hrs by SRB assay; assay type: functional, cell-based; conditions: THP-1, 72 h
MCF7 = assay: Cytotoxicity against human MCF7 cells assessed as reduction in cell viability after 72 hrs by SRB assay; assay type: functional, cell-based; conditions: MCF7, 72 h
DU-145 = assay: Cytotoxicity against human DU-145 cells assessed as reduction in cell viability after 72 hrs by SRB assay; assay type: functional, cell-based; conditions: DU-145, 72 h
HepG2 [13] = assay: Cytotoxicity against human HepG2 cells assessed as reduction in cell viability after 72 hrs by SRB assay; assay type: functional, cell-based; conditions: HepG2, 72 h

Structure (SMILES) | IC50 (HCT-116 [1]) [µM] | IC50 [2] [µM] | IC50 [3] [µM] | IC50 (MDA-MB-231) [µM] | IC50 (HCT-116 [4]) [µM] | IC50 (HepG2 [5]) [µM] | IC50 (CCRF-CEM) [µM] | Ratio IC50 [6] | IC50 (ADR5000 cell line) [µM] | Ratio IC50 [7] | Ratio IC50 [8] | IC50 [9] [µM] | Ratio IC50 [10] | Ratio IC50 [11] | IC50 (U-87 MG) [µM] | other results
C=CCc1cc(C(C)=O)ccc1OCC=C(C)C | 10.6 | 12.2 | 18.1 | 17.9 | 14 | 14.7 | 16.2 | 0.67 | 5.25 | 0.94 | 0.32 | 11.9 | 1.31 | 1.23 | 12.9 | –
C#CCOc1ccc(C(=O)/C=C/c2ccc(OCC=C)c(OC)c2)cc1CC=C | – | – | – | – | – | – | > 50 | – | – | – | – | – | – | – | – | –
C=CCOc1ccc(/C=C/C(=O)c2ccc(OCC=C(C)C)c(CC=C)c2)cc1OC | – | – | – | – | – | – | > 50 | – | – | – | – | – | – | – | – | –
C#CCOc1ccc(/C=C/C(=O)c2ccc(CC=C(C)C)cc2)cc1OC | – | – | – | – | – | – | > 50 | – | – | – | – | – | – | – | – | –
C#CCOc1ccc(/C=C/C(=O)c2ccccc2C)cc1OC | 1.66 | 1.21 | 8.2 | 14.8 | 1.06 | 2.64 | 6.95 | 0.07 | 0.92 | 0.58 | 0.13 | 0.99 | 0.64 | 3.11 | 2.1 | –
C#CCOc1ccc(C(CC(=O)c2cccc(C)c2)CC(=O)c2cccc(C)c2)cc1OC | – | – | – | – | – | – | > 50 | – | – | – | – | – | – | – | – | –
C#CCOc1ccc(/C=C/C(=O)c2ccc3c(c2)OCO3)cc1OC | – | – | – | – | – | – | > 50 | – | – | – | – | – | – | – | – | –
C#CCOc1ccc(/C=C/C(=O)c2ccc(C)cc2)cc1OC | – | – | – | – | – | – | > 50 | – | – | – | – | – | – | – | – | –
C#CCOc1ccc(/C=C/C(=O)c2cccc(Br)c2)cc1OC | 2.9 | 4.16 | 12.5 | 3.5 | 1.9 | 10.1 | 15.2 | 0.88 | 2.28 | 1.61 | 0.15 | 3.09 | 0.66 | 1.24 | 2.59 | –
C#CCOc1ccc(C(CC(=O)c2cccc(Br)c2)CC(=O)c2cccc(Br)c2)cc1OC | – | – | – | – | – | – | > 50 | – | – | – | – | – | – | – | – | –
C#CCOc1ccc(/C=C/C(=O)c2cccc(C)c2)cc1OC | 1.38 | 1.97 | 11.3 | 2.03 | 1.06 | 5.03 | 8.82 | 0.87 | 1.38 | 1.09 | 0.16 | 1.77 | 0.77 | 2.24 | 1.8 | –
C#CCOc1ccc(/C=C/C(=O)c2ccc(-n3ccnc3)cc2)cc1OC | 0.78 | 1.08 | 12.7 | 2.03 | 0.67 | 5.39 | 15 | 0.86 | 1 | 0.77 | 0.07 | 1.74 | 0.86 | 2.36 | 1.41 | –
C#CCOc1ccc(C(C)=O)cc1CC=C | – | – | – | – | – | – | 38.2 | – | – | – | – | – | – | – | – | –
C#CCOc1ccc(/C=C/C(=O)c2cccn2C)cc1OC | – | – | – | – | – | – | > 50 | – | – | – | – | – | – | – | – | –
C#CCOc1ccc(/C=C/C(=O)c2ccc(C(C)C)cc2)cc1OC | 3.7 | 2.12 | 9.91 | 4.07 | 3.13 | 6.31 | 11.8 | 0.72 | 2.72 | 0.75 | 0.23 | 2.93 | – | 1.57 | 2.84 | Ratio IC50 [12]: 0.85
COc1cccc2c1C(=O)c1c(O)c3c(c(O)c1C2=O)C[C@@](O)(C(=O)CO)C[C@@H]3O[C@H]1C[C@H](N)[C@H](O)[C@H](C)O1 [DOXORUBICIN] | – | 0.98 | 52.9 | 0.13 | 1.78 | 4.56 | 0.02 | – | – | – | – | 0.79 | – | – | 0.26 | –
C#CCOc1ccc(C=O)cc1OC | – | – | – | – | – | – | > 50 | – | – | – | – | – | – | – | – | –
C=CCOc1ccc(/C=C\C(=O)c2ccc(OCC=C(C)C)c(CC=C)c2)cc1OC | – | – | – | – | – | – | > 50 | – | – | – | – | – | – | – | – | –
C#CCOc1ccc(/C=C/C(=O)c2ccn(C)c2)cc1OC | – | – | – | – | – | – | > 50 | – | – | – | – | – | – | – | – | –
C=CCOc1ccc(C=O)cc1OC | 5.77 | 6.97 | 15.3 | 15 | 8.02 | 10.5 | 14 | 0.5 | 3.48 | 0.93 | 0.25 | 7.53 | 1.39 | 1.46 | 7.5 | –
C=CCOc1ccc(/C=C/C(=O)c2ccccc2C)cc1OC | – | – | – | – | – | – | – | – | – | – | – | – | – | – | – | IC50 (HL-60): 7.9 µM; IC50 (THP-1): 4.76 µM; IC50 (MCF7): 10.3 µM; IC50 (DU-145): 5.21 µM; IC50 (HepG2 [13]): 10.1 µM
C#CCOc1ccc(/C=C/C(=O)c2cccc(OC)c2)cc1OC | 1.92 | 1.33 | 11.4 | 13.8 | 1.01 | 5.54 | 5.59 | 0.09 | 1.1 | 0.91 | 0.2 | 1.23 | 0.53 | 2.05 | 1.46 | –
C#CCOc1ccc(/C=C/C(=O)c2ccc(OC)c(OC)c2)cc1OC | 2.01 | 1.56 | 6.75 | 13.6 | 0.32 | 5.98 | 8.65 | 0.14 | 1.44 | 0.55 | 0.17 | 1.89 | 0.16 | 1.13 | 2.86 | –
